In ChEMBL document CHEMBL4265991 one finds Ratio IC50 and inhibition data, which are given here for four molecules.

Test [1] can be described thus: Selectivity index, ratio of IC50 for recombinant human His-tagged IMPDH1 to IC50 for recombinant Cryptococcus neoformans His-tagged IMPDH.
The nature of test [2]: Selectivity index, ratio of IC50 for recombinant human His-tagged IMPDH2 to IC50 for recombinant Cryptococcus neoformans His-tagged IMPDH.
In test [3] the target is Inosine-5'-monophosphate dehydrogenase (Cryptococcus neoformans var. neoformans serotype D (strain JEC21 /ATCC MYA-565) (Filobasidiella neoformans)) (UniProt Q5KP44). Description: Inhibition of recombinant Cryptococcus neoformans His-tagged IMPDH expressed in Escherichia coli BL21 (DE3) using IMP as substrate and DTT containing buffer in presence of NAD.
Chain of Inosine-5'-monophosphate dehydrogenase (Cryptococcus neoformans var. neoformans serotype D (strain JEC21 /ATCC MYA-565) (Filobasidiella neoformans)) (Q5KP44 whole entry, looked up): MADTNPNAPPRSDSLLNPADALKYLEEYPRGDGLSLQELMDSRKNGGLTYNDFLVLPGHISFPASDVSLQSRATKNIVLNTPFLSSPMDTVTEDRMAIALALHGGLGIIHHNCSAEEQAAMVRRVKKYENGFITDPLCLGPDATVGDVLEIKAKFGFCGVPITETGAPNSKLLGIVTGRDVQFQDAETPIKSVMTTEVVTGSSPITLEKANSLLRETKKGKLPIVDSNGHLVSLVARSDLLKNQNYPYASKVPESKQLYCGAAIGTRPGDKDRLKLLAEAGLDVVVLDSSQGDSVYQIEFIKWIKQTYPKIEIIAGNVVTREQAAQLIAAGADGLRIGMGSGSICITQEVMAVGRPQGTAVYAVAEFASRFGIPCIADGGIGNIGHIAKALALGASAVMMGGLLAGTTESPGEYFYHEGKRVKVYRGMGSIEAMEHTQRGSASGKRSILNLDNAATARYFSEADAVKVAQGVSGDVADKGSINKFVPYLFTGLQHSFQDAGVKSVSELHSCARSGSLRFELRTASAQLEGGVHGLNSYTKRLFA

The source made the active and inactive calls. The calls are words filed in the database; no cut-off is given here.

Turning to `COC(=O)c1ccc(-c2nnc(SC3=CS(=O)(=O)c4ccccc43)o2)cc1`, the Ratio IC50 in test [1] and in test [2] was over 30 each time.

On to `COc1ccccc1-c1nnc(SC2=CS(=O)(=O)c3ccccc32)o1`, for which the inhibition result in test [3] was “inactive”.

Regarding `COc1ccc(-c2nnc(SC3=CS(=O)(=O)c4ccccc43)o2)cc1`, the Ratio IC50 in test [1] and in test [2] was over 30 in each case.

On to `O=S1(=O)C=C(Sc2nnc(-c3ccccc3)o2)c2ccccc21`, for which the inhibition entry in test [3] was “inactive”.
